# Data from PubChem BioAssay (NCI).
#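 These data come from cells grown in 96-well plates and exposed to compound for 48 hours at five concentrations. The concentration for 50% growth inhibition is given as GI50. The concentration for full growth arrest is given as TGI.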
# Tested on: LOX IMVI melanoma
# Test: DTP human tumour cell line panel, 48 h
SMILES,GI50 [µM],TGI [µM]
CCn1c(-c2nonc2N)nc2c(C#CC(C)(C)O)nc(OC[C@@H](N)c3ccccc3)cc21,4.2,8.82
Cn1ccc2c3c(Oc4ccc(NC(N)=O)cc4)ccnc3ccc21,> 100,> 100
CC1(C)OC1COc1c2occc2cc2ccc(=O)oc12 (stereo unspecified),–,> 100
CC(=O)OCCOCNC(=S)N/N=C(\C)c1cnccn1,–,> 100
CCCCCCCCCCCCC(O)c1ccc(C#CCCCCCCCCCO)o1 (stereo unspecified),18.5,33.5
Nc1n[nH]c2cc(F)c([C@@H]3Nc4ccc5[nH]ncc5c4[C@H]4C5CCC(C5)[C@@H]34)cc12 (stereo partly specified),0.158,6.47
COc1ccc(CCN=C2NC(=O)/C(=C/c3ccc4ncccc4c3)S2)cc1,> 25,> 25
O=C(Nc1ccccc1-c1nn(C(=S)Nc2ccccc2)c(=S)n(C(=S)Nc2ccccc2)c1=O)C(F)(F)F,–,> 66.1
O=c1c(-c2ccccc2)c2oc(c1-c1ccccc1)CSCc1cccc(c1)CSC2,–,> 100

# Tested on: MOLT-4 leukemia
# Test: DTP human tumour cell line panel, 48 h
SMILES,GI50 [µM],TGI [µM]
Nc1cc(NN=C(c2ccc(O)cc2)c2ccc(O)cc2)c([N+](=O)[O-])cc1[N+](=O)[O-],2.76,7.69
O=CNc1ccc2c(c1)C(=O)c1ccccc1-2,–,> 100
O=C1C=CC(=O)c2nc3c(cc21)CCC3,–,33.7
Nc1c(C(=O)Nc2cccc(C(F)(F)F)c2)sc2nc3c(cc12)CCCCC3,15,51.6
Nc1ccc(C2=NNC(=O)Cc3cc4c(cc32)OCCO4)cc1Cl,3.05,> 50
C=C(C)CCOC(c1ccccc1)(c1ccccc1)c1ccccc1,–,> 100
COc1ccc(C)cc1-c1cc(Sc2ccccc2)c(-c2cc(C)ccc2OC)o1,–,> 31.6
COc1ccc2nc3cc(Cl)ccc3c(NCCNCC(C)O)c2c1 (stereo unspecified),0.512,11.1
CCn1c(-c2nonc2N)nc2c(C#CC(C)(C)O)nc(OC[C@@H](N)c3ccccc3)cc21,4.42,16
Cn1ccc2c3c(Oc4ccc(NC(N)=O)cc4)ccnc3ccc21,> 100,> 100
CC1(C)OC1COc1c2occc2cc2ccc(=O)oc12 (stereo unspecified),–,> 100
CC(=O)OCCOCNC(=S)N/N=C(\C)c1cnccn1,–,> 100
CCCCCCCCCCCCC(O)c1ccc(C#CCCCCCCCCCO)o1 (stereo unspecified),4.69,26.7
Nc1n[nH]c2cc(F)c([C@@H]3Nc4ccc5[nH]ncc5c4[C@H]4C5CCC(C5)[C@@H]34)cc12 (stereo partly specified),0.207,> 50
COc1ccc(CCN=C2NC(=O)/C(=C/c3ccc4ncccc4c3)S2)cc1,> 25,> 25
O=C(Nc1ccccc1-c1nn(C(=S)Nc2ccccc2)c(=S)n(C(=S)Nc2ccccc2)c1=O)C(F)(F)F,–,> 77.1
O=c1c(-c2ccccc2)c2oc(c1-c1ccccc1)CSCc1cccc(c1)CSC2,–,> 100

# Tested on: NCI-H522 lung
# Test: DTP human tumour cell line panel, 48 h
SMILES,GI50 [µM],TGI [µM]
Nc1cc(NN=C(c2ccc(O)cc2)c2ccc(O)cc2)c([N+](=O)[O-])cc1[N+](=O)[O-],2.46,6.51
O=CNc1ccc2c(c1)C(=O)c1ccccc1-2,–,> 100
O=C1C=CC(=O)c2nc3c(cc21)CCC3,–,25.4
Nc1c(C(=O)Nc2cccc(C(F)(F)F)c2)sc2nc3c(cc12)CCCCC3,2.52,17.7
Nc1ccc(C2=NNC(=O)Cc3cc4c(cc32)OCCO4)cc1Cl,2.02,23.5
C=C(C)CCOC(c1ccccc1)(c1ccccc1)c1ccccc1,–,76.3
COc1ccc(C)cc1-c1cc(Sc2ccccc2)c(-c2cc(C)ccc2OC)o1,–,> 31.6
COc1ccc2nc3cc(Cl)ccc3c(NCCNCC(C)O)c2c1 (stereo unspecified),1.48,3.1
CCn1c(-c2nonc2N)nc2c(C#CC(C)(C)O)nc(OC[C@@H](N)c3ccccc3)cc21,4.28,7.9
Cn1ccc2c3c(Oc4ccc(NC(N)=O)cc4)ccnc3ccc21,> 100,> 100
CC1(C)OC1COc1c2occc2cc2ccc(=O)oc12 (stereo unspecified),–,> 100
CC(=O)OCCOCNC(=S)N/N=C(\C)c1cnccn1,–,97
CCCCCCCCCCCCC(O)c1ccc(C#CCCCCCCCCCO)o1 (stereo unspecified),21,45.5
Nc1n[nH]c2cc(F)c([C@@H]3Nc4ccc5[nH]ncc5c4[C@H]4C5CCC(C5)[C@@H]34)cc12 (stereo partly specified),0.106,2.08
COc1ccc(CCN=C2NC(=O)/C(=C/c3ccc4ncccc4c3)S2)cc1,> 25,> 25
O=C(Nc1ccccc1-c1nn(C(=S)Nc2ccccc2)c(=S)n(C(=S)Nc2ccccc2)c1=O)C(F)(F)F,–,58.5
O=c1c(-c2ccccc2)c2oc(c1-c1ccccc1)CSCc1cccc(c1)CSC2,–,> 100
